Experimental data taken from patent US8048862B2, “Macrocyclic inhibitors of hepatitis C virus replication” (priority 2008, dated 2011).
Where two headings read alike, the source gives them in different places.

What was measured:
NS3/NS4 complexes = NS3/NS4 complexes (Hepatitis C virus genotype 1a, UniProt P27958); test: NS3/NS4 inhibition activity (IC50); assay type: biochemical
Method in brief: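 NS3/NS4 complexes were formed and compound inhibitory concentrations determined at ambient temperature (23 °C). The buffer contained 50 mM Tris-HCl pH 7.5, 15% glycerol, 0.6 mM LDAO, 25 μM NS4A peptide and 10 mM DTT.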

hepatitis C replicon = hepatitis C replicon EC50; assay type: cell-based; conditions: Hepatitis C virus, hepatitis C replicon, read-out: EC50
From the text: NS3-NS4 inhibition activity can be determined using known assay methods.

Chain of NS3/NS4 complexes (P27958 1027-1657): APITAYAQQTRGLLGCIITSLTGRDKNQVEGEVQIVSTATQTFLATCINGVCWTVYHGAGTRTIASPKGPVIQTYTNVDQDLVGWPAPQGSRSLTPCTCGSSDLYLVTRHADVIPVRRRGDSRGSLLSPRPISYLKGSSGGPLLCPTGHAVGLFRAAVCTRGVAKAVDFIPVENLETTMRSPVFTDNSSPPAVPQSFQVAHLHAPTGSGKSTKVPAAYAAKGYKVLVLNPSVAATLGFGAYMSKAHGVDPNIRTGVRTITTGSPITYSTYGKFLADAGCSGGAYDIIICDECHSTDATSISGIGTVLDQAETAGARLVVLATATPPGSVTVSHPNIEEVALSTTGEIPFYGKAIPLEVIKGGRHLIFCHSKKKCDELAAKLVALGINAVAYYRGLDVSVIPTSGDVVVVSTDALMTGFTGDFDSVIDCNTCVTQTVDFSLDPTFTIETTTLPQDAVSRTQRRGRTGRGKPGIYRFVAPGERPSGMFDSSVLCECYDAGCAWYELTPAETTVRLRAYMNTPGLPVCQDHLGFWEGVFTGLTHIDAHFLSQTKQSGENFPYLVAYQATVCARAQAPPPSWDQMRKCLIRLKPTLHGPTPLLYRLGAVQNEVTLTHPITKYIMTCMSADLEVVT
Chain of NS3/NS4 complexes (P27958 1658-1711): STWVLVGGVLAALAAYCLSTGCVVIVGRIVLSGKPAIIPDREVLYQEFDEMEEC

Structure (SMILES)	IC50 (NS3/NS4 complexes; Table 2, read-out: IC50) [µM]	EC50 (hepatitis C replicon; Table 2) [µM]	IC50 (NS3/NS4 complexes; IC50, Table 3) [µM]	EC50 (hepatitis C replicon; Table 3) [µM]	IC50 (NS3/NS4 complexes; Table 3, read-out: IC50) [µM]
COc1ccc2c(O[C@@H]3C[C@H]4C(=O)N[C@]5(C(=O)NS(=O)(=O)N(C)C)C[C@H]5/C=C\CCCCC[C@H](Nc5cccc(C(F)(F)F)c5)C(=O)N4C3)cc(-c3nc(C(C)C)cs3)nc2c1C [Compound 457]	< 0.01	< 0.01	–	–	–
COc1ccc2c(O[C@@H]3C[C@H]4C(=O)N[C@]5(C(=O)NS(=O)(=O)N(C)C)C[C@H]5/C=C\CCCCC[C@H](Nc5ccc(C(F)(F)F)cc5)C(=O)N4C3)cc(-c3nc(C(C)C)cs3)nc2c1C [Compound 458]	< 0.01	0.01 to 0.075	–	–	–
COc1ccc2c(O[C@@H]3C[C@H]4C(=O)N[C@]5(C(=O)NS(=O)(=O)N(C)C)C[C@H]5/C=C\CCCCC[C@H](Nc5ccc(F)c(C(F)(F)F)c5)C(=O)N4C3)cc(-c3nc(C(C)C)cs3)nc2c1C [Compound 459]	< 0.01	< 0.01	–	–	–
COc1ccc2c(O[C@@H]3C[C@H]4C(=O)N[C@]5(C(=O)NS(=O)(=O)N(C)C)C[C@H]5/C=C\CCCCC[C@H](Nc5cc(F)cc(C(F)(F)F)c5)C(=O)N4C3)cc(-c3nc(C(C)C)cs3)nc2c1C [Compound 460]	< 0.01	< 0.01	–	–	–
CC(C)n1c(O[C@@H]2C[C@H]3C(=O)N[C@]4(C(=O)NS(=O)(=O)C5(C)CC5)C[C@H]4/C=C\CCCCC[C@H](Nc4ccccc4)C(=O)N3C2)nc2ccc(F)cc21 [Compound 461]	< 0.01	0.01 to 0.075	–	–	–
Cc1ccc2nc(O[C@@H]3C[C@H]4C(=O)N[C@]5(C(=O)NS(=O)(=O)C6(C)CC6)C[C@H]5/C=C\CCCCC[C@H](Nc5ccccc5)C(=O)N4C3)n(C(C)C)c2c1 [Compound 462]	< 0.01	0.01 to 0.075	–	–	–
CC(C)n1c(O[C@@H]2C[C@H]3C(=O)N[C@]4(C(=O)NS(=O)(=O)C5(C)CC5)C[C@H]4CCCCCCC[C@H](Nc4cc(F)cc(C(F)(F)F)c4)C(=O)N3C2)nc2ccccc21 [Compound 465]	< 0.01	0.075 to 0.5	–	–	–
CCn1c(O[C@@H]2C[C@H]3C(=O)N[C@]4(C(=O)NS(=O)(=O)C5(C)CC5)C[C@H]4CCCCCCC[C@H](Nc4cc(F)cc(C(F)(F)F)c4)C(=O)N3C2)nc2ccccc21 [Compound 466]	< 0.01	0.075 to 0.5	–	–	–
CC(C)n1c(O[C@@H]2C[C@H]3C(=O)N[C@]4(C(=O)NS(=O)(=O)C5(C)CC5)C[C@H]4/C=C\CCCCC[C@H](Nc4ccccc4)C(=O)N3C2)nc2cccc(F)c21 [Compound 467]	< 0.01	0.01 to 0.075	–	–	–
CC(C)n1c(O[C@@H]2C[C@H]3C(=O)N[C@]4(C(=O)NS(=O)(=O)C5(C)CC5)C[C@H]4/C=C\CCCCC[C@H](Nc4ccccc4)C(=O)N3C2)nc2cc(F)ccc21 [Compound 468]	< 0.01	< 0.01	–	–	–
CC(C)n1c(O[C@@H]2C[C@H]3C(=O)N[C@]4(C(=O)NS(=O)(=O)C5(C)CC5)C[C@H]4/C=C\CCCCC[C@H](Nc4ccccc4)C(=O)N3C2)nc2c(F)cccc21 [Compound 469]	< 0.01	< 0.01	–	–	–
Cc1ccc2c(c1)nc(O[C@@H]1C[C@H]3C(=O)N[C@]4(C(=O)NS(=O)(=O)C5(C)CC5)C[C@H]4/C=C\CCCCC[C@H](Nc4ccccc4)C(=O)N3C1)n2C(C)C [Compound 470]	< 0.01	0.01 to 0.075	–	–	–
Cc1cccc2c1nc(O[C@@H]1C[C@H]3C(=O)N[C@]4(C(=O)NS(=O)(=O)C5(C)CC5)C[C@H]4/C=C\CCCCC[C@H](Nc4ccccc4)C(=O)N3C1)n2C(C)C [Compound 471]	< 0.01	0.01 to 0.075	–	–	–
COc1ccc2c(O[C@@H]3C[C@H]4C(=O)N[C@]5(C(=O)NS(=O)(=O)C6(C)CC6)C[C@H]5/C=C\CCCCC[C@H](Nc5ccccc5C)C(=O)N4C3)cc(-c3nc(C(C)C)cs3)nc2c1C [Compound 472]	< 0.01	0.01 to 0.075	–	–	–
COc1ccc2c(O[C@@H]3C[C@H]4C(=O)N[C@]5(C(=O)NS(=O)(=O)C6(C)CC6)C[C@H]5/C=C\CCCCC[C@H](Nc5ccc(F)c(F)c5)C(=O)N4C3)cc(-c3nc(C(C)C)cs3)nc2c1C [Compound 473]	< 0.01	< 0.01	–	–	–
CNC(=O)c1cccc(N[C@H]2CCCCC/C=C\[C@@H]3C[C@@]3(C(=O)NS(=O)(=O)C3(C)CC3)NC(=O)[C@@H]3C[C@@H](Oc4cc(-c5nc(C(C)C)cs5)nc5c(C)c(OC)ccc45)CN3C2=O)c1 [Compound 474]	< 0.01	< 0.01	–	–	–
COc1ccc2c(O[C@@H]3C[C@H]4C(=O)N[C@]5(C(=O)NS(=O)(=O)C6(C)CC6)C[C@H]5/C=C\CCCCC[C@H](Nc5cccc(NC(C)=O)c5)C(=O)N4C3)cc(-c3nc(C(C)C)cs3)nc2c1C [Compound 475]	< 0.01	< 0.01	–	–	–
COc1ccc2c(O[C@@H]3C[C@H]4C(=O)N[C@]5(C(=O)NS(=O)(=O)C6(C)CC6)C[C@H]5/C=C\CCCCC[C@H](Nc5cccc(C#N)c5)C(=O)N4C3)cc(-c3nc(C(C)C)cs3)nc2c1C [Compound 476]	< 0.01	< 0.01	–	–	–
COc1ccc2c(O[C@@H]3C[C@H]4C(=O)N[C@]5(C(=O)NS(=O)(=O)C6(C)CC6)C[C@H]5/C=C\CCCCC[C@H](Nc5cccc(C)c5)C(=O)N4C3)cc(-c3nc(C(C)C)cs3)nc2c1C [Compound 477]	< 0.01	< 0.01	–	–	–

Structure (SMILES)	IC50 (NS3/NS4 complexes; Table 2, read-out: IC50) [µM]	EC50 (hepatitis C replicon; Table 2) [µM]	IC50 (NS3/NS4 complexes; IC50, Table 3) [µM]	EC50 (hepatitis C replicon; Table 3) [µM]	IC50 (NS3/NS4 complexes; Table 3, read-out: IC50) [µM]
COc1cccc(N[C@H]2CCCCC/C=C\[C@@H]3C[C@@]3(C(=O)NS(=O)(=O)C3(C)CC3)NC(=O)[C@@H]3C[C@@H](Oc4cc(-c5nc(C(C)C)cs5)nc5c(C)c(OC)ccc45)CN3C2=O)c1 [Compound 478]	< 0.01	0.075 to 0.5	–	–	–
COc1ccc2c(O[C@@H]3C[C@H]4C(=O)N[C@]5(C(=O)NS(=O)(=O)C6(C)CC6)C[C@H]5/C=C\CCCCC[C@H](Nc5cccc(C(=O)N(C)C)c5)C(=O)N4C3)cc(-c3nc(C(C)C)cs3)nc2c1C [Compound 479]	< 0.01	< 0.01	–	–	–
COc1ccc2c(O[C@@H]3C[C@H]4C(=O)N[C@]5(C(=O)NS(=O)(=O)C6(C)CC6)C[C@H]5/C=C\CCCCC[C@H](Nc5cc(F)c(F)c(F)c5)C(=O)N4C3)cc(-c3nc(C(C)C)cs3)nc2c1C [Compound 480]	< 0.01	0.01 to 0.075	–	–	–
COc1ccc2c(O[C@@H]3C[C@H]4C(=O)N[C@]5(C(=O)NS(=O)(=O)C6(C)CC6)C[C@H]5/C=C\CCCCC[C@H](Nc5ccc(C#N)cc5)C(=O)N4C3)cc(-c3nc(C(C)C)cs3)nc2c1C [Compound 481]	< 0.01	< 0.01	–	–	–
COc1ccc2c(O[C@@H]3C[C@H]4C(=O)N[C@]5(C(=O)NS(=O)(=O)C6(C)CC6)C[C@H]5/C=C\CCCCC[C@H](Nc5cc(C)cc(F)c5)C(=O)N4C3)cc(-c3nc(C(C)C)cs3)nc2c1C [Compound 482]	< 0.01	< 0.01	–	–	–
CC1(S(=O)(=O)NC(=O)[C@@]23C[C@H]2/C=C\CCCCC[C@H](Nc2ccccc2)C(=O)N2C[C@H](Oc4nc5ccccc5nc4-c4cccs4)C[C@H]2C(=O)N3)CC1 [Compound 486]	< 0.01	0.01 to 0.075	–	–	–
COc1ccc2c(O[C@@H]3C[C@H]4C(=O)N[C@]5(C(=O)NS(=O)(=O)C6(C)CC6)C[C@H]5/C=C\CCCCC[C@H](Nc5ccccc5F)C(=O)N4C3)cc(-c3nc(C(C)C)cs3)nc2c1C [Compound 492]	< 0.01	0.01 to 0.075	–	–	–
CC(C)(C)OC(=O)N[C@H]1CCCCC/C=C\[C@@H]2C[C@@]2(C(=O)NS(=O)(=O)C2(C)CC2)NC(=O)[C@@H]2C[C@@H](Oc3nc4ccccc4n3COCC[Si](C)(C)C)CN2C1=O [Compound 701]	–	–	< 0.01	0.01 to 0.1	–
CC(C)(C)OC(=O)N[C@H]1CCCCC/C=C\[C@@H]2C[C@@]2(C(=O)O)NC(=O)[C@@H]2C[C@@H](Oc3nc4ccccc4s3)CN2C1=O [Compound 1001]	–	–	–	> 0.1	0.01 to 0.1
CCn1c(O[C@@H]2C[C@H]3C(=O)N[C@]4(C(=O)NS(=O)(=O)C5CC5)C[C@H]4/C=C\CCCCC[C@H](NC(=O)OC(C)(C)C)C(=O)N3C2)nc2ccccc21 [Compound 1007]	–	–	–	< 0.01	< 0.01
CC(C)(C)OC(=O)N[C@H]1CCCCC/C=C\[C@@H]2C[C@@]2(C(=O)NS(=O)(=O)C2(C)CC2)NC(=O)[C@@H]2C[C@@H](Oc3nc4ccccc4s3)CN2C1=O [Compound 1008]	–	–	–	< 0.01	< 0.01
CC(C)(C)OC(=O)N[C@H]1CCCCC/C=C\[C@@H]2C[C@@]2(C(=O)NS(=O)(=O)C2CC2)NC(=O)[C@@H]2C[C@@H](Oc3nc4ccccc4s3)CN2C1=O [Compound 1009]	–	–	–	< 0.01	< 0.01
CC(C)(C)OC(=O)N[C@H]1CCCCC/C=C\[C@@H]2C[C@@]2(C(=O)NS(=O)(=O)C2CC2)NC(=O)[C@@H]2C[C@@H](Oc3nc4ccc(F)cc4s3)CN2C1=O [Compound 1010]	–	–	–	0.01 to 0.1	< 0.01
CC(C)(C)OC(=O)N[C@H]1CCCCC/C=C\[C@@H]2C[C@@]2(C(=O)NS(=O)(=O)C2(C)CC2)NC(=O)[C@@H]2C[C@@H](Oc3nc4ccc(F)cc4s3)CN2C1=O [Compound 1011]	–	–	–	0.01 to 0.1	< 0.01
CC(C)(C)OC(=O)N[C@H]1CCCCC/C=C\[C@@H]2C[C@@]2(C(=O)NS(=O)(=O)C2CC2)NC(=O)[C@@H]2C[C@@H](Oc3nc4ccc(Br)cc4s3)CN2C1=O [Compound 1012]	–	–	–	< 0.01	< 0.01
CC(C)(C)OC(=O)N[C@H]1CCCCC/C=C\[C@@H]2C[C@@]2(C(=O)NS(=O)(=O)C2(C)CC2)NC(=O)[C@@H]2C[C@@H](Oc3nc4ccc(Br)cc4s3)CN2C1=O [Compound 1013]	–	–	–	< 0.01	< 0.01
Cc1ccc2nc(O[C@@H]3C[C@H]4C(=O)N[C@]5(C(=O)NS(=O)(=O)C6(C)CC6)C[C@H]5/C=C\CCCCC[C@H](NC(=O)OC(C)(C)C)C(=O)N4C3)sc2c1 [Compound 1014]	–	–	–	< 0.01	< 0.01
Cc1ccc2nc(O[C@@H]3C[C@H]4C(=O)N[C@]5(C(=O)NS(=O)(=O)C6CC6)C[C@H]5/C=C\CCCCC[C@H](NC(=O)OC(C)(C)C)C(=O)N4C3)sc2c1 [Compound 1015]	–	–	–	< 0.01	< 0.01
COc1ccc2nc(O[C@@H]3C[C@H]4C(=O)N[C@]5(C(=O)NS(=O)(=O)C6(C)CC6)C[C@H]5/C=C\CCCCC[C@H](NC(=O)OC(C)(C)C)C(=O)N4C3)sc2c1 [Compound 1016]	–	–	–	0.01 to 0.1	< 0.01
